Experiments:
Format in all cases: cell-based
[1] = test system: E. coli K12 and JM109 strains; assay: Morphological changes by bright field microscopy; settings: K12, semi-synthetic media
[2] = test system: E coli K12 bacteria; assay: Microarray analysis (Affymetrix E. coli Genome 2.0)
Procedure: (§1) E coli K12 bacteria were grown in high citrate minimal media with 5.4 g/L of thiophosphate or 2.4 g/L of Na2HPO4 for up to 12 hrs. The use of high citrate media was chosen to help lower the total amount of thiophosphate needed for growth when compared to regular M9 media (1). The media is prepared as follows: thiophosphate, 5.4 g/L; KCL 1.5 g/L; (NH4)2SO4, 2 g/L; sodium citrate 2H2O, 10 g/L. Adjust the pH to 7.5 and sterile filter the solution. Then add the following: MgSO4-7H2O, 0.2 g/L (sterilized separately as a conc. solution); glucose, 2 g/L sterilized separately by filtration). Glucose can also be sterilized by autoclaving separately. CaCl2 (11 mg/L) is also be added as needed.
Both Microarray and RNA seq analysis was performed. Total RNA was used for both studies. For microarray studies, raw Affymetrix CEL files (E. coli Genome 2.0) were normalized to produce probeset-level expression values for all probesets with Expression Console (version 1.4.1.46), using the Robust Multiarray Average (RMA) and Detection Above BackGround (DABG) (Irizarry R. A et al. 2003, Biostatistics 4(2): 249-64. doi:10.1093/biostatistics/4.2.249). The analysis was limited to 10,112 E. coli probesets interrogated by the array. Fold changes were computed using the R environment for statistical computing (version 2.15.1) by Boston University Microarray and Sequencing (CTSA grant #1UL1TR001430).

[3] = test system: Bacillus megaterium strain ATCC 15117; assay: AICA production/secretion in fermentation with thio-phosphate
Procedure: Bacillus megaterium was grown using a modified minimal media. In particular, the media contained: glucose, 60 g/L; KCL 1 g/L; MgSO4 0.4 g/L; peptone, 2 g/L; adenine, 0.25 g/L; NH4CI 8 g/L, urea, 3 g/L, calcium chloride, 0.5 g/L; as well as ferrous sulfate and manganese sulfate at 0.005 g/L. Thio-phosphate was added at levels between 2-6 g/L. For controls NaH2PO4 was add at 1 g/L.
Bacillus megaterium strain ATCC 15117 (U.S. Pat. No. 3,238,110 & 3,748,232) was used to examine the increased production of AICA using thio-phosphate. Cells were cultured at 26-30° C. for 4 days with 4 g/L of thio-phosphate or normal phosphate (1 g/L). […] The cells were pelleted, and the supernatant was acidified to pH 2 to help remove unwanted amino acids. The samples were then diluted with one volume of water and bound to activated charcoal with shaking for 2 hrs. (2 grams/20 ml) at room temp. The charcoal was collected on a filter with filtration and washed with 0.01 N HCl. AICA was then eluted with a solution of ethanol/ammonium hydroxide/water at a 1:1:2 ratio using a volume equivalent to the original supernatant. The samples were then separated and analyzed on Whatman chromatography paper using a solvent mixture of 50% butanol, 15% ethanol, and 35% water. The results indicated a ˜2× fold increase AICA per volume of cells.
Histidine and tryptophan were added to fermentation reactions to enhance AICA yield by blocking the endogenous synthesis of these amino acids. […] Fermentation reactions were typically initiated with 1.5 ml of overnight growth in nutrient broth which was then diluted into 50 ml of the reaction media. […] Despite the high activity, the growth of these cells was inhibited, almost in parallel with the amount of AICA secreted.

[4] = test system: E coli K12 bacteria; assay: Agilent analyzer profile of total RNA from control and thiophosphate treated cultures
Procedure: as §1
Total RNA was isolated using Bioline's ISOLATE II RNA mini kit. […] The rRNA ratio (23s/16s) was at least 1.6. Note small RNAs like SS RNA were not retained under the conditions used. For rRNA depleted preparations, Ribominus (Invitrogen) was then used to deplete 23S and 16S rRNA. The ribosomal depleted RNA was then concentrated with the kit's concentration module prior to gel analysis.
To further examine this idea, an Agilent analyzer was used to analyze the profiles of total RNA from control cultures and thiophosphate treated cultures (FIG. 1). It was evident that in E. coli, there was an increase in the non-ribosomal fraction, particularly between the […] and 23S ribosomal RNAs, which was even more evident in ribosomal RNA depleted samples (FIG. 1). Quantitative analysis indicated the fraction of 16S and 23S rRNA in the profile of total RNA was depleted in TP cultures relative to controls. […] This corresponds to a reduction of 8.8%. To estimate the fold increase in mRNA that could account for such a change, one needs to know the % of total RNA that is mRNA.

[5] = microarray (value outside parentheses)
[6] = 4 g/L thio-phosphate vs normal phosphate
[7] = twice as many starter cells, 50 mg each of his and trp

`OP(O)(O)=S` [thio-phosphate] was tested, and the “time by which filaments were detected” value [1] was no more than 8 h, the “time by which paired bacteria could be seen” value [1] was no more than 2 h and the “average fold change of 19 genes with unstable mRNAs” value ([2]; half-lives less than or equal to 1.4 minutes) was 1.0+/−2.8. For the same molecule, the “Dxs transcript fold enhancement” value ([2]; microarray) was 2.5 × fold, the FabB transcript elevation ([2]; microarray) was 3 × and the TesA transcript elevation ([2]; microarray) was 4 ×. For the same molecule, the “Udp transcript fold reduction” value ([2]; microarray) was 3.2 × fold, the Upp transcript increase ([2]; microarray) was 2 × and the accA transcript elevation ([2]; microarray) was 1.3. The accC transcript elevation ([2]; microarray) was 3.2, the accD transcript elevation ([2]; microarray) was 1.4 and the “adk transcript fold elevation” value ([2]; microarray) was 1.5 × fold. The “dusB transcript fold elevation” value ([2]; microarray) was no less than 3 × fold, the “infB transcript fold elevation” value ([2]; microarray) was 3.1 × fold and the “ispD transcript fold enhancement” value ([2]; microarray) was 2.5 × fold. The “other IPP/DMAPP synthesis gene transcripts (the others) fold enhancement” value ([2]; microarray) was roughly 1.3 × fold, the prsA transcript elevation ([2]; microarray) was less than 2 × and the “pyrF transcript fold elevation” value ([2]; microarray) was 3.7 × fold. For the same molecule, the “rlmH transcript fold elevation” value ([2]; microarray) was “at least 3.4 × fold”, the “rpoS transcript fold elevation” value ([2]; microarray) was 3 × fold and the “tadA transcript fold elevation” value ([2]; microarray) was no less than 3 × fold. The “trmA transcript fold elevation” value ([2]; microarray) was no less than 3 × fold, the “ycih transcript fold elevation” value ([2]; microarray) was 3.3 × fold and the “yqgf transcript fold elevation” value ([2]; microarray) was “at least 3.4 × fold”. For the same molecule, the dacA transcript elevation [2, 5] was 3.6 × fold, the ftsI transcript elevation [2, 5] was 1.6 × and the idtB transcript elevation [2, 5] was 2 ×. For the same molecule, the idtC transcript elevation [2, 5] was 5.2 ×, the “FabA, FabG, FabZ, FabI, FabF gene transcripts” value ([2]; microarray and RNA seq) was “elevated” and the “tRNA synthetases average increase” value ([2]; microarray, 20 genes) was 1.24 × fold. For the same molecule, the “CspA transcript fold increase” value ([2]; microarray, vs control) was 3.1 × fold, the “nusA transcript fold increase” value ([2]; microarray, vs control) was 2.6 × fold and the “pgsA mRNA fold enhancement” value ([2]; platform not given) was 1.9 × fold. The “plsB mRNA fold enhancement” value ([2]; platform not given) was 1.9 × fold, the “pssA mRNA fold enhancement” value ([2]; platform not given) was 1.9 × fold and the “average fold change for 10,110 transcripts” value ([2]; standard deviation 1.4) was −0.1. For the same molecule, the “average fold change of 23 mRNAs with half-lives greater than 10 minutes” value ([2]; standard deviation 2.44) was 1.2, the “effect on cells by day 4” value ([3]; 100 mg of histidine and tryptophan each per liter) was “cell lysis” and the “growth recovery by day 4” value ([3]; 4 g/L thio-phosphate) was 60-100 % of controls. For the same molecule, the “growth after 24 hrs” value [3, 6] was “the same”, the “growth recovered by the third day” value [3, 6] was “normal or 60% of normal levels” and the “fold increase AICA per volume of cells” value ([3]; 4 g/L thio-phosphate vs normal phosphate (1 g/L), 26-30° C., 4 days) was roughly 2 × fold. For the same molecule, the AICA levels increased ([3]; per cell mass basis compared to normal phosphate containing culture media) was 2 ×, the “cell specific yield of AICA” value [3, 7] was 5-6 × fold and the growth of cells [3, 7] was “inhibited”. The “midpoint of the non-ribosomal RNA peak” value [4] was ~2,000 NT, the “reduction of 16S and 23S rRNA fraction relative to controls” value [4] was 8.8% and the “fold increase in mRNA or non-ribosomal RNA relative to ribosomal RNA” value ([4]; assuming mRNA is normally 2% of the total) was 5.5 × fold. The “16S and 23S rRNA as fraction of total RNA” value ([4]; average of two replicates) was 42.5%.

— patent US11254958B1, “Metabolic engineering of E coli with thio-phosphate” (priority 2018, dated 2022)
